From publication PMC7375689 (Leukemia & lymphoma, 2020)
Where two headings read alike, the source gives them in different places.

What was measured:
[1] = patients with relapsed multiple myeloma; cited from earlier work
[2] = Plasma pharmacokinetics of AR-42 in AML patients; type: in vivo, human; details: for Tmax: median (SD)
[3] = Toxicity and dose limiting toxicity; type: in vivo, human; details: for dose limiting toxicities (DLTs): cycle 1
AML = test: Clinical response; type: in vivo, human; details: of 13 patients enrolled, AR-42 followed by decitabine; responses all in DL3
miR-29b [4] = tested on: miR-29b
cancer cells = details: cited from earlier work
AML cell lines = details: cited from earlier work
miR-29b [5] = details: cited from earlier work
[6] = single agent panobinostat; cited from earlier work
[7] = single agent vorinostat; cited from earlier work
[8] = 20 mg (day 1, 3, 5), Day 1, cycle 1, plasma, geometric mean (SD)
[9] = 20 mg (day 1, 3, 5), Day 5, cycle 1, plasma, geometric mean (SD)
[10] = 40 mg (day 1, 3, 4, 5), Day 1, cycle 1, plasma, geometric mean (SD)
[11] = 40 mg (day 1, 3, 4, 5), Day 5, cycle 1, plasma, geometric mean (SD)
[12] = 40 mg (day 1, 3, 5), Day 1, cycle 1, plasma, geometric mean (SD)
[13] = 40 mg (day 1, 3, 5), Day 5, cycle 1, plasma, geometric mean (SD)
[14] = AR-42 followed by decitabine, all dose levels, 13 AML patients

## Cn1cc(CNCC2CCN(c3ncc(C(=O)NO)cn3)CC2)c2ccccc21 [quisinostat]
[1]
  cardiac events: grade 3 and 4 cardiac events

## AR-42
[2]; [8]
  AUC0–4: 1.59 (2.13) μM h
  AUC0–∞: 1.77 (2.34) μM h
  Cl/F (apparent oral clearance): 36.11 (114.88) L/h
  T1/2: 7.36 (0.42) h
  Vz/F (apparent volume of distribution): 381.33 (1238.57) L
[2]; 20 mg (day 1, 3, 5), Day 1, cycle 1, plasma
  Tmax: 2.00 (1.32) h
[2]; [9]
  AUC0–4: 4.19 (0.54) μM h
  AUC0–∞: 4.63 (0.71) μM h
  Cl/F (apparent oral clearance): 13.84 (2.18) L/h
  Cmax: 350 nM
  T1/2: 6.91 (1.11) h
  Vz/F (apparent volume of distribution): 137.94 (14.39) L
[2]; 20 mg (day 1, 3, 5), Day 5, cycle 1, plasma
  Tmax: 2.00 (1.32) h
[2]; [10]
  AUC0–4: 11.33 (3.54) μM h
  AUC0–∞: 12.22 (4.24) μM h
  Cl/F (apparent oral clearance): 10.48 (2.98) L/h
  Cmax: 1010 nM
  T1/2: 7.63 (1.14) h
  Vz/F (apparent volume of distribution): 120.53 (35.87) L
[2]; 40 mg (day 1, 3, 4, 5), Day 1, cycle 1, plasma
  Tmax: 2.00 (2.36) h
[2]; [11]
  AUC0–4: 11.13 (3.36) μM h
  AUC0–∞: 14.42 (7.91) μM h
  Cl/F (apparent oral clearance): 8.88 (3.23) L/h
  Cmax: 960 nM
  T1/2: 9.98 (6.79) h
  Vz/F (apparent volume of distribution): 127.81 (54.36) L
[2]; 40 mg (day 1, 3, 4, 5), Day 5, cycle 1, plasma
  Tmax: 4.00 (2.60) h
[2]; [12]
  AUC0–4: 7.20 (1.06) μM h
  AUC0–∞: 7.90 (1.10) μM h
  Cl/F (apparent oral clearance): 16.22 (2.15) L/h
  Cmax: 710 nM
  T1/2: 6.63 (0.29) h
  Vz/F (apparent volume of distribution): 155.67 (27.03) L
[2]; 40 mg (day 1, 3, 5), Day 1, cycle 1, plasma
  Tmax: 2.00 (1.15) h
[2]; [13]
  AUC0–4: 6.94 (0.64) μM h
  AUC0–∞: 7.71 (1.10) μM h
  Cl/F (apparent oral clearance): 16.61 (2.22) L/h
  Cmax: 860 nM
  T1/2: 6.93 (1.26) h
  Vz/F (apparent volume of distribution): 166.11 (9.73) L
[2]; 40 mg (day 1, 3, 5), Day 5, cycle 1, plasma
  Tmax: 1.50 (0.29) h
[2]; read-out: Cmax values, DL1, days 1 and 5
  Cmax: 150 to 350 nM
[2]; read-out: Cmax values, DL2, days 1 and 5
  Cmax: 710 to 860 nM
[2]; read-out: Cmax values, DL3, days 1 and 5
  Cmax: 960 to 1010 nM
[3]; AR-42 followed by decitabine, 13 AML patients
  patients with worsening hypertension: 4
[3]; [14]
  Number of Patients with grade ≥ 3 in cycles 1 and 2: Alanine aminotransferase increased: 1
  Number of Patients with grade ≥ 3 in cycles 1 and 2: Alkalosis: 1
  Number of Patients with grade ≥ 3 in cycles 1 and 2: Aspartate aminotransferase increased: 2
  Number of Patients with grade ≥ 3 in cycles 1 and 2: Blood bilirubin increased: 1
  Number of Patients with grade ≥ 3 in cycles 1 and 2: Cardiac troponin increased: 1
  Number of Patients with grade ≥ 3 in cycles 1 and 2: Catheter-related infection: 2
  Number of Patients with grade ≥ 3 in cycles 1 and 2: Fall: 1
  Number of Patients with grade ≥ 3 in cycles 1 and 2: Febrile neutropenia: 9
  Number of Patients with grade ≥ 3 in cycles 1 and 2: Heart failure: 1
  Number of Patients with grade ≥ 3 in cycles 1 and 2: Hyperglycemia: 3
  Number of Patients with grade ≥ 3 in cycles 1 and 2: Hypertension: 4
  Number of Patients with grade ≥ 3 in cycles 1 and 2: Hyperuricemia: 1
  Number of Patients with grade ≥ 3 in cycles 1 and 2: Hypoalbuminemia: 1
  Number of Patients with grade ≥ 3 in cycles 1 and 2: Hypokalemia: 3
  Number of Patients with grade ≥ 3 in cycles 1 and 2: Hyponatremia: 5
  Number of Patients with grade ≥ 3 in cycles 1 and 2: Hypophosphatemia: 2
  Number of Patients with grade ≥ 3 in cycles 1 and 2: Hypotension: 2
  Number of Patients with grade ≥ 3 in cycles 1 and 2: Hypoxia: 6
  Number of Patients with grade ≥ 3 in cycles 1 and 2: Lung infection: 5
  Number of Patients with grade ≥ 3 in cycles 1 and 2: Rash maculo-papular: 1
  Number of Patients with grade ≥ 3 in cycles 1 and 2: Respiratory failure: 1
  Number of Patients with grade ≥ 3 in cycles 1 and 2: Sepsis: 3
  Number of Patients with grade ≥ 3 in cycles 1 and 2: Sinus tachycardia: 1
  Number of Patients with grade ≥ 3 in cycles 1 and 2: Syncope: 1
[3]; DL1: AR-42 20 mg daily days 1, 3, 5, then decitabine, 3 patients
  dose limiting toxicities (DLTs): no DLTs
[3]; DL2: AR-42 40 mg daily days 1, 3, 5, then decitabine, 3 patients
  dose limiting toxicities (DLTs): no DLTs
[3]; DL3: AR-42 40 mg daily days 1, 3, 4, 5, then decitabine
  dose limiting toxicities (DLTs): One DLT of polymicrobial sepsis and multi-organ failure
[3]; of the six patients with neutropenia in cycle 1
  patients who also experienced a grade 3 or 4 infection: 4
[3]; patients treated with AR-42
  cardiac toxicities: minimal cardiac toxicities
AML
  number of patients who achieved a CRi: 2
miR-29b [4]; DL1: AR-42 20 mg days 1, 3, 5, day 5 of cycle 1 over baseline
  increase of at least 100% in miR-29b expression: not observed
miR-29b [4]; DL2: AR-42 40 mg days 1, 3, 5, day 5 of cycle 1 over baseline
  increase in miR-29b expression of at least 100%: not observed
miR-29b [4]; DL3: AR-42 40 mg days 1, 3, 4, 5, day 5 of cycle 1 over baseline
  increase in miR-29b expression: not observed
miR-29b [4]; all dose levels, current schedule
  doubling in either the mature or primary miR at day 5 prior to decitabine administration: did not observe a doubling
miR-29b [4]; human, in vivo
  correlation between miR-29b ΔΔCT values and Cmax: weak correlation
Cancer cells
  IC50: submicromolar
AML cell lines; AML cell lines
  apoptosis: dose dependent apoptosis
  effect on cell cycle: cell cycle arrest at both S and G2/M phases
AML cell lines; sequential administration of AR-42 followed by decitabine, compared to either drug alone
  anti-leukemic activity: stronger anti-leukemic activity
miR-29b [5]; AML cells, 1 μM AR-42, after 24 h
  miR-29b expression: miR-29b induction
miR-29b [5]; Kasumi-1 AML cells, in vitro
  miR-29b expression: upregulated
miR-29b [5]; in vitro
  miR-29b transcription: increase

## Cc1[nH]c2ccccc2c1CCNCc1ccc(/C=C/C(=O)NO)cc1 [panobinostat]
[6]
  patients who experienced fatigue: 47.4%

## O=C(CCCCCCC(=O)Nc1ccccc1)NO [vorinostat]
[7]
  patients who experienced fatigue: 52%
